Values of other authors as cited in patent publication US6841363B2, “Preparation of capped mRNA” (Emory University, priority 2000, dated 2005).
pKd: −log10 of the molar value.

Legend:
[1] = molecular target: m7GTP; conditions: previous study (U.S. Pat. No. 6,232,442); human eIF4E and mutants; read-out: Kd (affinity for m7GTP)
[2] = intrinsic fluorescence, m7GTP; W56Y compared with wild-type, 'shown therein' (Hsu et al. 2000 / U.S. Pat. No. 6,232,442)

In the case of “wild-type: abundant form of human eIF4E (eukaryotic initiation factor 4E) previously isolated and characterized”, the pKd [1] is listed as 5.92 and the pKd [2] is listed as 6.50.
